Experimental data published in patent publication US3954814A, “Alkadienylcyclopropanecarboxylates” (Sumitomo Chemical Company, Limited, priority 1971, dated 1976).
≈ marks a conversion by molar mass, not a printed value.

How the values were obtained:
Type in all cases: in vivo
[1] = tested on: house flies; assay: Campbell's turn table oil spray test on house fly adults (Experimental Example 1); settings: Musca domestica, 24 h, oil spray 5 ml, 10 min exposure, mortality after 1 day, read-out: LC50 (50 percent lethal concentration)
Description: The present compounds (1), (4), (8), (10), (14), (15), (20), (22), (32), (36), (38), (41), (44), (48), (50), (51), (52), (53), (61), (66), (68), (72), (73), (78), (80), (81), (90), (93) and (96), and chrysanthemic acid esters and pyrethric acid esters corresponding thereto were individually formulated by use of deodorized kerosene into oil sprays of various test concentrations.
Using the Campbell's turn table [disclosed in "Soap & Sanitary Chemicals," Vol. 14, No. 6, page 119 (1938)], 5 ml. of each of the oil sprays was sprayed. When 20 seconds had elapsed after the spraying, the shutter was opened, and adults of house flies (a group of about 100 flies) were exposed to the settling mist for 10 minutes and then transferred to an observation cage.
The above operation was repeated several times to measure the LC50 (50 percent lethal concentration) of each compound.

[2] = tested on: Northern house mosquitoes; assay: knock-down test of oil sprays on Northern house mosquito adults in (70 cm)^3 glass chamber (Experimental Example 2)
Description: The present compounds (1), (6), (20), (22), (23), (25), (27), (29), (30), (31), (39), (42), (43), (45), (49), (53), (56), (62), (64), (78), (81), (83), (85), (87), (88) and (89), and chrysanthemic acid esters and pyrethric acid esters corresponding thereto were individually formulated by use of deodorized kerosene into oil sprays of various test concentrations.
About 20 adults of Northern house mosquitoes were liberated in a (70 cm)^3 glass chamber, and 0.7 ml. of each of the oil sprays was sprayed into the chamber under a pressure of 1.5 kg/cm^2 by use of a glass atomizer. Subsequently, the number of knocked-down mosquitoes was counted to calculate the KT50 (50 percent knock down time) of each compound.

[3] = tested on: rice stem borer larvae; assay: micro dropping (topical) test on hibernating rice stem borer larvae (Experimental Example 3); settings: topical in acetone, head and tail of larvae, 3 days
Text: The present compounds (1), (4), (8), (10), (14), (15), (22), (32), (36), (38), (41), (44), (48), (50), (51), (52), (53), (61), (66), (68), (72), (73), (80), (81), (90) and (93) and chrysanthemic acid esters corresponding thereto were individually dissolved in acetone to prepare insecticides of various concentrations. Using a micro dropping means, each of the insecticides was dropped to the head and tail of hibernating rice stem borer larvae.

[4] = concentration of oil spray 0.1%
[5] = concentration of oil spray 0.2%

## C=CC(C)=CC1C(C(=O)OC(C#N)c2cccc(Oc3ccccc3)c2)C1(C)C (stereo not drawn) [Present compound (22), 3-Phenoxy-α-cyanobenzyl 2',2'-dimethyl-3'-(2"-methyl-1",3"-butadienyl)-cyclopropanecarboxylate]
[1]
  LC50: 40 µg/mL (≈ 103 µM)
[2]; [4]
  KT50 (50 percent knock down time): 168 s
[3]
  LD50 (50 percent lethal dose): 0.006 γ/larva

## C=CC(C)=CC1C(C(=O)OCc2coc(Cc3ccccc3)c2)C1(C)C (stereo not shown) [Present compound (1), 5-Benzyl-3-furylmethyl 2',2'-dimethyl-3'-(2"-methyl-1", 3"-butadienyl)-cyclopropanecarboxylate]
[1]
  LC50: 53 µg/mL (≈ 151 µM)
[2]; [5]
  KT50 (50 percent knock down time): 131 s
[3]
  LD50 (50 percent lethal dose): 0.068 γ/larva

## C=CC=CC1C(C(=O)OC2CC(=O)C(CC=C)=C2C)C1(C)C (stereo not shown) [Present compound (81), 2-Allyl-3-methyl-2-cyclopentene-1-one-4-yl 2',2'-dimethyl-3'-(1",3"-butadienyl)-cyclopropanecarboxylate]
[1]
  LC50: 590 µg/mL (≈ 1960 µM)
[2]; [5]
  KT50 (50 percent knock down time): 141 s
[3]
  LD50 (50 percent lethal dose): 1.7 γ/larva

## C=CCC1=C(C)C(OC(=O)C2C(C=C(C)C)C2(C)C)CC1=O (stereo not shown) [Allethrin, reference compound]
[1]
  LC50: 1180 µg/mL (≈ 3900 µM)
[2]; [4]
  KT50 (50 percent knock down time): 292 s
[2]; [5]
  KT50 (50 percent knock down time): 197 s
[3]
  LD50 (50 percent lethal dose): 2.6 γ/larva

## CC(C)=CC1C(C(=O)OCc2coc(Cc3ccccc3)c2)C1(C)C (stereo not shown) [5-Benzyl-3-furylmethyl chrysanthemate, 5-benzyl-3-furylmethyl chrysanthemate, reference compound]
[1]
  LC50: 100 µg/mL (≈ 295 µM)
[2]; [5]
  KT50 (50 percent knock down time): 205 s
[3]
  LD50 (50 percent lethal dose): 0.20 γ/larva

## C=C(C)C=CC1C(C(=O)OCc2coc(Cc3ccccc3)c2)C1(C)C (stereo not shown) [Present compound (53), 5-Benzyl-3-furylmethyl 2',2'-dimethyl-3'-(3"-methyl-1",3"-butadienyl)-cyclopropanecarboxylate]
[1]
  LC50: 71 µg/mL (≈ 203 µM)
[2]; [5]
  KT50 (50 percent knock down time): 124 s
[3]
  LD50 (50 percent lethal dose): 0.170 γ/larva

## CC(C)=CC1C(C(=O)OC(C#N)c2cccc(Oc3ccccc3)c2)C1(C)C (stereo not drawn) [3-Phenoxy-α-cyanobenzyl chrysanthemate, reference compound]
[1]
  LC50: 60 µg/mL (≈ 160 µM)
[2]; [4]
  KT50 (50 percent knock down time): 230 s
[3]
  LD50 (50 percent lethal dose): 0.01 γ/larva

## C#CCc1ccc(COC(=O)C2C(C=CC=C)C2(C)C)cc1 (stereo not shown) [Present compound (66), 4-Propargylbenzyl 2',2'-dimethyl-3'-(1",3"-butadienyl)-cyclopropanecarboxylate]
[1]
  LC50: 350 µg/mL (≈ 1190 µM)
[3]
  LD50 (50 percent lethal dose): 0.31 γ/larva

## C=CC(C)=CC1C(C(=O)OCc2cccc(Oc3ccccc3)c2)C1(C)C (stereo not shown) [Present compound (15), 3-Phenoxybenzyl 2',2'-dimethyl-3'-(2"-methyl-1",3"-butadienyl)-cyclopropanecarboxylate]
[1]
  LC50: 68 µg/mL (≈ 188 µM)
[3]
  LD50 (50 percent lethal dose): 0.29 γ/larva

## CC(C)=CC=CC1C(C(=O)OCc2coc(Cc3ccccc3)c2)C1(C)C (stereo not shown) [Present compound (52), 5-Benzyl-3-furylmethyl 2',2'-dimethyl-3'-(4"-methyl-1",3"-pentadienyl)-cyclopropanecarboxylate]
[1]
  LC50: 52 µg/mL (≈ 143 µM)
[3]
  LD50 (50 percent lethal dose): 0.100 γ/larva

## CC(C)=CC(C)=CC1C(C(=O)OCc2cccc(Oc3ccccc3)c2)C1(C)C (stereo not shown) [Present compound (48), 3-Phenoxybenzyl 2',2'-dimethyl-3'-(2",4"-dimethyl-1",3"-pentadienyl)-cyclopropanecarboxylate]
[1]
  LC50: 140 µg/mL (≈ 358 µM)
[3]
  LD50 (50 percent lethal dose): 0.56 γ/larva

## CC=CC(C)=CC1C(C(=O)OCc2cccc(Oc3ccccc3)c2)C1(C)C (stereo not shown) [Present compound (41), 3-Phenoxybenzyl 2',2'-dimethyl-3'-(2"-methyl-1",3"-pentadienyl)-cyclopropanecarboxylate]
[1]
  LC50: 100 µg/mL (≈ 266 µM)
[3]
  LD50 (50 percent lethal dose): 0.48 γ/larva

## C=CC=CC1C(C(=O)OCc2cccc(Oc3ccccc3)c2)C1(C)C (stereo not shown) [Present compound (73), 3-Phenoxybenzyl 2',2'-dimethyl-3'-(1",3"-butadienyl)-cyclopropanecarboxylate]
[1]
  LC50: 60 µg/mL (≈ 172 µM)
[3]
  LD50 (50 percent lethal dose): 0.26 γ/larva
